From article PMC7893776, “Selecting an anti-malarial clinical candidate from two potent dihydroisoquinolones” (Malaria Journal, 2021)
Values joined by “and” are separate entries in the source; they are usually repeats but may differ in a detail not shown here. Equal values may be shown once.

Columns and labels:
Assay type in all cases: in vitro ADME
CYP1A2 = target: T1, CYP1A2 (Homo sapiens, UniProt P05177); assay: CYP450 inhibition, CYP1A2; settings: for inhibition of CYP1A2: 10 µM, probe substrate Ethoxy-resorufin, replicate measurements
T1 construct: purchased Cypex Ltd (Bactosomes)
T1 sequence (P05177 1-516): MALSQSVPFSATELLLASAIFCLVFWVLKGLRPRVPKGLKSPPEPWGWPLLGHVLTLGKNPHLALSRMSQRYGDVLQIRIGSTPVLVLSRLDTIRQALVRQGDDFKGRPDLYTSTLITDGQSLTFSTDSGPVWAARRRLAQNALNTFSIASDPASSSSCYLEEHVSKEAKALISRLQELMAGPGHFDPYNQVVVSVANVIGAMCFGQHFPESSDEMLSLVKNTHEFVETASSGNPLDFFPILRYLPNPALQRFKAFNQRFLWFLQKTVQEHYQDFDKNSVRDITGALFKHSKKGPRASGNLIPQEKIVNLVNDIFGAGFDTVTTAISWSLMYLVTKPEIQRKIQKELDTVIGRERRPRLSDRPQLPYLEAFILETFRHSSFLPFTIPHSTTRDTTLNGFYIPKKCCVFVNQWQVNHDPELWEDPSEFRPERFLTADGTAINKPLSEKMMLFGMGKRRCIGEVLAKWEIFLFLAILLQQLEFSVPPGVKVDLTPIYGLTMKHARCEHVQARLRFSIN

CYP2C19 = target: T2, CYP2C19 (Homo sapiens, UniProt P33261); assay: CYP450 inhibition, CYP2C19; settings: for inhibition of CYP2C19: 10 µM, probe substrate S-mephenytoin, replicate measurements
T2 construct: purchased Cypex Ltd (Bactosomes)

[1] = Microsomal stability, rat; settings: for CLint in vivo: scaled up using PBSF
Procedure: The metabolic stability assay was performed by incubating compounds individually (0.8, 4, or 20 µM) with mouse, rat, dog and human liver microsomes (Fisher, 0.5 mg/mL protein concentration) at 37 °C. The metabolic reaction was initiated by the addition of a NADPH-regenerating system and quenched at various time points by the addition of acetonitrile according to a published method.
The remaining concentration of each compound was measured as a ratio of peak area to the internal standard. The log peak area ratio was plotted vs. time (h), and the slope was determined to calculate the elimination rate constant [k = (− 2.303) * slope]. If deviation from first order kinetics was evident, only the initial linear portion of the plot was used to determine the rate constate, k. The half-life (h) was calculated as t1/2 = 0.693/k. Intrinsic clearance in vitro was calculated as CLintin vitro = (1000)*(0.693/t1/2*60)/0.5, where microsomal concentration in the reaction solution was 0.5 mg/mL; 1000 and 60 are scaling factors for volume (µL) and time (min), respectively. The intrinsic in vitro clearance was scaled to the intrinsic in vivo clearance using physiology based scaling factor (PBSF): CLint in vivo= CLint in vitro *PBSF: (microsome protein/gram liver) * (gram liver/kg b.w.), with PBSF: 47 (mouse), 47(rat), 58 (dog), 32 (human); and liver weight proportions: 54.9 (mouse), 36.6 (rat), 32.9 (dog) 25.7 (human).

[2] = rat microsomes, 0.8 µM, independent replicate to Table 4
[3] = rat microsomes, 4 µM, independent replicate to Table 4
[4] = rat microsomes, 20 µM, independent replicate to Table 4

T2 sequence (P33261 whole entry): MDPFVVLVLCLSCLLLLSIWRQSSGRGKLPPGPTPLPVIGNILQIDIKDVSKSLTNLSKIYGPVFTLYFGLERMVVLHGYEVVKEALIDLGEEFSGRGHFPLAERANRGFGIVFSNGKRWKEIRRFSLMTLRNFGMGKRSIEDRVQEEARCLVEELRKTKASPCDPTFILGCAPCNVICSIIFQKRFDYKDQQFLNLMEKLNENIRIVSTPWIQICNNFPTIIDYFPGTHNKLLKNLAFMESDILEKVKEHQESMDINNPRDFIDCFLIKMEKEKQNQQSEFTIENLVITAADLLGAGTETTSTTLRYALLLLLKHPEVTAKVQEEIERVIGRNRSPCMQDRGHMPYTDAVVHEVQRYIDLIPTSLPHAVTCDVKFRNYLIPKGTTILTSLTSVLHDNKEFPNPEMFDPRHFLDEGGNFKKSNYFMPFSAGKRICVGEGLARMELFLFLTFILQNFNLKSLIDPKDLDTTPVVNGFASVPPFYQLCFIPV

Row | SMILES | CYP1A2 inhibition, in words (CYP1A2) | CYP2C19 inhibition, in words (CYP2C19) | CLint ([1]; rat microsomes, 0.8 µM) | t1/2 ([1]; rat microsomes, 0.8 µM) | inhibition of CYP1A2 (CYP1A2) | inhibition of CYP2C19 (CYP2C19) | CLint in vitro [1, 2] | CLint in vivo ([1]; rat microsomes, 0.8 µM) | CLint in vitro [1, 3] | CLint in vivo ([1]; rat microsomes, 4 µM) | CLint in vitro [1, 4] | CLint in vivo ([1]; rat microsomes, 20 µM) | also measured
1 | N#Cc1cc(NC(=O)C2c3ccccc3C(=O)N(CC(F)(F)F)C2c2cn[nH]c2)ccc1F (racemic) [(r)-SJ311] | – | – | – | – | 5% and 0.5% | 12% | – | – | – | – | – | – | CLint in vitro ([1]; rat microsomes, 20, 4, 0.8 µM): <7 µl/min/mg protein; CLint in vivo ([1]; rat microsomes, 20, 4, 0.8 µM): <11.7 mL/min/kg
2 | N#Cc1cc(NC(=O)C2c3ccccc3C(=O)N(CC(F)(F)F)C2c2cccnc2)ccc1F (racemic) [(r)-SJ733] | – | – | – | – | 10.8% | 5, 5% | <7 µl/min/mg protein | <11.7 mL/min/kg | <7 µl/min/mg protein | <11.7 mL/min/kg | <7 µl/min/mg protein | <11.7 mL/min/kg | –
3 | N#Cc1cc(NC(=O)[C@H]2c3ccccc3C(=O)N(CC(F)(F)F)[C@@H]2c2cn[nH]c2)ccc1F [(+)-SJ311] | – | – | < 7 µl/min/mg protein | > 4 h | – | – | – | – | – | – | – | – | –
4 | N#Cc1cc(NC(=O)[C@H]2c3ccccc3C(=O)N(CC(F)(F)F)[C@@H]2c2cccnc2)ccc1F [(+)-SJ733] | – | – | < 7 µl/min/mg protein | > 4 h | – | – | <7 µl/min/mg protein | <11.7 mL/min/kg | <7 µl/min/mg protein | <11.7 mL/min/kg | <7 µl/min/mg protein | <11.7 mL/min/kg | –

Continued, in another order:

Row | CYP1A2 inhibition, in words (CYP1A2) | CYP2C19 inhibition, in words (CYP2C19) | CLint ([1]; rat microsomes, 0.8 µM) | t1/2 ([1]; rat microsomes, 0.8 µM) | SMILES | inhibition of CYP1A2 (CYP1A2) | inhibition of CYP2C19 (CYP2C19) | CLint in vitro [1, 2] | CLint in vivo ([1]; rat microsomes, 0.8 µM) | CLint in vitro [1, 3] | CLint in vivo ([1]; rat microsomes, 4 µM) | CLint in vitro [1, 4] | CLint in vivo ([1]; rat microsomes, 20 µM) | also measured
5 | weak inhibitors | weakly inhibited | – | – | N#Cc1cc(NC(=O)[C@H]2c3ccccc3C(=O)N(CC(F)(F)F)[C@@H]2c2cccnc2)ccc1F (racemic) [SJ733] | – | – | – | – | – | – | – | – | –
6 | weak inhibitors | weak inhibitor | – | – | N#Cc1cc(NC(=O)[C@H]2c3ccccc3C(=O)N(CC(F)(F)F)[C@@H]2c2cn[nH]c2)ccc1F [SJ311] | – | – | – | – | – | – | – | – | –
